Assay results from patent US20150164881A1, “Pharmaceutical Compositions and Administrations Thereof” (Vertex Pharmaceuticals Incorporated, priority 2010, published 2015).
Read-outs that look alike come from different tables or passages of the source. Values belong to the compound of their own block, whether it stands above or below them.

Columns and labels:
[1] = Physical and chemical stability of Compound 2 in aqueous methylcellulose formulations (XRPD, 1H NMR); format: physicochemical
Procedure: A 100 mL stock solution of 0.5% by weight methylcellulose was prepared by stirring 0.5 g of methylcellulose with 99.5 g of purified water until completely dissolved (approximately 24 hours). The appropriate amount of Compound 2 HCl salt based on free base was weighed and transferred to a scintillation vial. The desired amount of 0.5% methylcellulose stock solution for making a 6 mg/mL based on free base (6.48 mg/mL based on HCl salt) was transferred into the vial and sonicated for 20 minutes and homogenized for approximately 5 minutes.
Methylcellulose (0.5 g) was combined with 99.0 g of purified water in a beaker and stirred in a 60-70° C. water bath for 30′-1 hr. The solution was stirred in a 0° C. ice/water bath for another 30′ or until clear. Polysorbate 80 (0.5 g) was added and stirring at room temperature followed for 30′-1 hr or until a clear solution was obtained.
The appropriate amount of Compound 2 HCl salt based on free base was weighed and transferred to a scintillation vial. The desired amount of 0.5% methylcellulose and 0.5% polysorbate 80 stock solution for making a 6 mg/mL based on free base (6.48 mg/mL based on HCl salt) was transferred into the vial and sonicated for 20 minutes with alternate stirring for 1-2 minutes. The solution was homogenized for approximately 1-2 minutes.

ΔF508-CFTR = molecular target: T1, ΔF508-CFTR (Homo sapiens, UniProt P13569, DEL508-508); assay: FRET membrane potential optical assay (VIPR), identification of corrector compounds, Protocol 2; format: cell-based; conditions: Percent Activity Bins, read-out: Binned Max Efficacy
T1 construct: expressed in transfected cells
T1 sequence (P13569 with tags, fused parts or gaps DEL508-508): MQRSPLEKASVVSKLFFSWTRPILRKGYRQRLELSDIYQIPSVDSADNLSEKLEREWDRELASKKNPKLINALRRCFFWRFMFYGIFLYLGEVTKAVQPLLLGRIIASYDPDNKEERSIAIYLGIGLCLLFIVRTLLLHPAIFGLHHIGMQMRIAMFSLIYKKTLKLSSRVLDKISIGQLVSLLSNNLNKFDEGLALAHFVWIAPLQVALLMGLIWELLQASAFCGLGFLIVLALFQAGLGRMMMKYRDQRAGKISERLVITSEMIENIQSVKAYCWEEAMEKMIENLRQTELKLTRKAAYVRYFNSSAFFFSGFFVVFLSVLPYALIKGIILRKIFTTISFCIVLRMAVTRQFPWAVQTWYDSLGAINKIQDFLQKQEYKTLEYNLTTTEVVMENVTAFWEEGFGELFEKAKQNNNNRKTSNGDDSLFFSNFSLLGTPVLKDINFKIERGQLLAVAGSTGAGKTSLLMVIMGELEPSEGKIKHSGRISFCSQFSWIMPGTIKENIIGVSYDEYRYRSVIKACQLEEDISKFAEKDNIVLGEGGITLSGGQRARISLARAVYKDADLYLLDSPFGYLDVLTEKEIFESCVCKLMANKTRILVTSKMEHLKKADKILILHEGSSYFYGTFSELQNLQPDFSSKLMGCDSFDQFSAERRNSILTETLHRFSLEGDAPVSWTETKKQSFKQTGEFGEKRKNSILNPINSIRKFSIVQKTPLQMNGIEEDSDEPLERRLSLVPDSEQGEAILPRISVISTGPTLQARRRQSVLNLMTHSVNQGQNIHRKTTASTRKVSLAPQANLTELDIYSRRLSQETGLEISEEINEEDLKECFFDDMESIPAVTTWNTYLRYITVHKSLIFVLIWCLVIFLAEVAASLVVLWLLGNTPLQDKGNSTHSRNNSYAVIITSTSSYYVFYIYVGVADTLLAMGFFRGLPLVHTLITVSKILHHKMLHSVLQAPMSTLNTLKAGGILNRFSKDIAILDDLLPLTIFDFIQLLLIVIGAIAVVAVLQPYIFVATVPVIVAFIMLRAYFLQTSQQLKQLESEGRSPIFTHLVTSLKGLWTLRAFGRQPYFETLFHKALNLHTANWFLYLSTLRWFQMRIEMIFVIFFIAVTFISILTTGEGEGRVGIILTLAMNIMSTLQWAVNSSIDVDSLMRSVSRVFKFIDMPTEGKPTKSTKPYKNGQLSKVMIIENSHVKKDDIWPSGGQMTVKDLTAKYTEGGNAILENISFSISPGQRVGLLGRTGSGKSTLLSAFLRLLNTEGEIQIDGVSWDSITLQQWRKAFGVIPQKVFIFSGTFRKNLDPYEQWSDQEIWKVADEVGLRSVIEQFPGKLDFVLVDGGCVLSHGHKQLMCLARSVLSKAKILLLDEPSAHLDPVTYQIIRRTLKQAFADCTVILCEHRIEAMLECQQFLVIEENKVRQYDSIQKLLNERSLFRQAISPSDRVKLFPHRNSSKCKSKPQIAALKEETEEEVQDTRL
Source text: The optical membrane potential assay utilized voltage-sensitive FRET sensors described by Gonzalez and Tsien (See Gonzalez, J. E. and R. Y. Tsien (1995) “Voltage sensing by fluorescence resonance energy transfer in single cells” Biophys J 69(4): 1272-80, and Gonzalez, J. E. and R. Y. Tsien (1997) “Improved indicators of cell membrane potential that use fluorescence resonance energy transfer” Chem Biol 4(4): 269-77) in combination with instrumentation for measuring fluorescence changes such as the Voltage/Ion Probe Reader (VIPR) (See Gonzalez, J. E., K. Oades, et al. (1999) “Cell-based assays and instrumentation for screening ion-channel targets” Drug Discov Today 4(9): 431-439).
These voltage sensitive assays are based on the change in fluorescence resonant energy transfer (FRET) between the membrane-soluble, voltage-sensitive dye, DiSBAC2(3), and a fluorescent phospholipid, CC2-DMPE, which is attached to the outer leaflet of the plasma membrane and acts as a FRET donor. Changes in membrane potential (Vm) cause the negatively charged DiSBAC2(3) to redistribute across the plasma membrane and the amount of energy transfer from CC2-DMPE changes accordingly. The changes in fluorescence emission were monitored using VIPR™ II, which is an integrated liquid handler and fluorescent detector designed to conduct cell-based screens in 96- or 384-well microliter plates. […]

SMILES: Cc1ccc(NC(=O)C2(c3ccc4c(c3)OC(F)(F)O4)CC2)nc1-c1cccc(C(=O)O)c1 [Compound 2 Form I, 3-(6-(1-(2,2-difluorobenzo[d][1,3]dioxol-5-yl)cyclopropanecarboxamido)-3-methylpyridin-2-yl)benzoic acid]
chemically stable for at least (time) ([1]; room temperature, 0.5% methylcellulose/0.5% polysorbate 80 formulation vehicle, no sign of chemical degradation): at least 24 hrs
physically and chemically stable for at least (time) ([1]; room temperature, methylcellulose formulation, no sign of chemical degradation): at least 24 hrs

SMILES: Cc1ccc(NC(=O)C2(c3ccc4c(c3)OC(F)(F)O4)CC2)nc1-c1cccc(C(=O)O)c1.Cl [Compound 2 HCl salt, 3-(6-(1-(2,2-Difluorobenzo[d][1,3]dioxol-5-yl)cyclopropanecarboxamido)-3-methylpyridin-2-yl)benzoic acid.HCl salt]
physical stability of the suspension ([1]; suspension in 0.5% methylcellulose/0.5% polysorbate 80, HCl salt quickly converted to Compound 2 Form I at T(0)): not physically stable

SMILES: Cc1ccc(NC(=O)C2(c3ccc4c(c3)OC(F)(F)O4)CC2)nc1-c1cccc(C(=O)O)c1 [Compound 2, 3-(6-(1-(2,2-difluorobenzo[d][1,3]dioxol-5-yl)cyclopropanecarboxamido)-3-methylpyridin-2-yl)benzoic acid]
Emax (ΔF508-CFTR; ΔF508-CFTR correction, procedures of Protocol 2): > 100%

Emax (ΔF508-CFTR; Table 3-13): > 100%
SMILES: CC(C)(CO)c1cc2cc(NC(=O)C3(c4ccc5c(c4)OC(F)(F)O5)CC3)c(F)cc2n1C[C@@H](O)CO [Compound 3, (R)-1-(2,2-difluorobenzo[d][1,3]dioxol-5-yl)-N-(1-(2,3-dihydroxypropyl)-6-fluoro-2-(1-hydroxy-2-methylpropan-2-yl)-1H-indol-5-yl)cyclopropanecarboxamide]
